{
  "source": "patent US11555055B2",
  "about": "“Peptide inhibitors of insulin-degrading enzyme” (The Regents of the University of California, priority 2017, dated 2023)",
  "key": {"HaCaT cells": {"tested_on": "HaCaT cells", "assay": "In vitro scratch wound assay, keratinocyte migration", "type": "cell-based", "details": "P12-3A 100 μM, 48 h after scratch wound, different concentrations of insulin", "procedure": "(§1) FIG. 4A-F. Effects of P12-3A on cultured skin cells. A, Insulin concentrations as a function of time in logarithmically growing primary murine skin fibroblasts in the absence or presence of P12-3A (100 μM). […] Data are mean±SEM of 4 independent replications. *P<0.05, **P<0.01. B, Proliferation of cells in the absence or presence of P12-3A (100 μM). […] C,D,E, P12-3A (100 μM) potentiates insulin-induced collagen production in skin fibroblasts. Collagen production was assessed by COL1A1 mRNA levels (C), levels of hydroxyproline secreted into the medium (D), and cell-associated mature alpha-1 type I collagen levels detected by Western blotting (E). […] Migration of HaCaT cells 48 h after induction of a scratch wound in the presence of the indicated quantities of insulin and/or P12-3A (100 μM). […]\n(§2) Insulin promotes wound healing and overall skin health by affecting a number of processes, including cell proliferation (2,3), cell migration (5,6), and the production and secretion of ECM components, particularly type I collagen (7-13). We therefore assessed the ability of P12-3A to influence these processes in cultured skin fibroblasts and keratinocytes. To that end, primary mouse skin fibroblasts were grown for 4 d in multiple concentrations of insulin in the presence or absence of P12-3A, and insulin concentration over time was monitored by ELISA. […]"}, "[1]": {"tested_on": "primary murine skin fibroblasts", "assay": "Western blotting of cell-associated mature alpha-1 type I collagen", "type": "cell-based, mouse", "details": "P12-3A 100 μM", "procedure": "as §1, §2"}, "[2]": {"tested_on": "primary murine skin fibroblasts", "assay": "Hydroxyproline secreted into the medium (collagen production and secretion)", "type": "cell-based, mouse", "details": "P12-3A 100 μM", "procedure": "as §1, §2"}, "[3]": {"tested_on": "primary murine skin fibroblasts", "assay": "Cell proliferation (CellTiter 96 AQueous)", "type": "cell-based, mouse", "details": "100 μM P12-3A, 10 nM insulin; not statistically significant", "procedure": "as §1, §2"}, "[4]": {"tested_on": "alpha-1 type I collagen (COL1A1) mRNA in primary murine skin fibroblasts", "assay": "COL1A1 mRNA quantification by RT-PCR", "type": "cell-based, mouse", "details": "P12-3A 100 μM, 4 d, confluent monolayers", "procedure": "as §1, §2"}},
  "note": "“Also recorded” adds a separate entry of the source. Where a SMILES comes first, the peptide text is derived from it. Bridges are numbered along the chain shown (N, C = ends).",
  "data": [
    {"compound": "CC(C)C[C@H](NC(=O)[C@H](CO)NC(=O)[C@@H](N)CCC(N)=O)C(=O)N1CCC[C@H]1C(=O)N[C@@H](Cc1c[nH]c2ccccc12)C(=O)N[C@H]1CSSC[C@@H](C(=O)N[C@H](C(=O)N[C@H](C(N)=O)[C@@H](C)O)C(C)C)NC(=O)[C@H](Cc2c[nH]cn2)NC(=O)[C@@H]2CCCN2C(=O)[C@H](Cc2ccc(O)cc2)NC1=O", "note": "[Peptide P12-3A] (H-QSLPWCYPHCVT-NH2; disulfide 6-10 (inferred))", "values": [
      {"measurement": "migration of keratinocytes", "setting": "HaCaT cells", "value": "significantly increase; also recorded: potentiates the migration of keratinocytes"},
      {"measurement": "mature, cell-associated collagen levels", "setting": "[1]", "value": "increased"},
      {"measurement": "hydroxyproline levels secreted into the medium", "setting": "[2]", "value": "~4.6 times that secreted by untreated cells"},
      {"measurement": "cell proliferation", "setting": "[3]", "value": "modestly increased; also recorded: No significant differences"},
      {"measurement": "COL1A1 mRNA levels", "setting": "[4]", "value": "~2.6 times the levels of untreated cells"}
    ]}
  ]
}
